Reference: PubChem BioAssay AID1963858 (Molecular Pharmacology Branch, DTP, NCI, 2024)
pIC50: −log10 of the molar value.

Tested on: HOP-62 multicell spheroids with HUVEC/MSC, viability
Assay: Anticancer human tumor HOP-62 cell line growth inhibition [KRAS2];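 also: viability read after a week of compound exposure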;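 as to viability, T/C: 100% = DMSO vehicle-treated spheroids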
Conditions: for pIC50: curve of first compound; for viability, T/C: stronger effect = lower value; active = viability on the fitted dose curve at most 10% of control; inactive = the rest
Summary of the method: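 KRAS-mutant tumor cells were grown as spheroids with HUVEC endothelial cells and human MSCs as stroma. Targeted agents were tested alone and with KRAS pathway inhibitors. Doses started at or near clinical Cmax, or 10 microM, descending half-log.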

[1] = second compound 0.0316 µM, first compound 0.0316 µM
[2] = second compound 0.0316 µM, first compound 0.1 µM
[3] = second compound 0.0316 µM, first compound 0.316 µM
[4] = second compound 0.0316 µM, first compound 1 µM
[5] = second compound 0.0316 µM, first compound 3.16 µM
[6] = second compound 0.0316 µM, first compound 10 µM
[7] = second compound 0.1 µM, first compound 0.0316 µM
[8] = second compound 0.1 µM, first compound 0.1 µM
[9] = second compound 0.1 µM, first compound 0.316 µM
[10] = second compound 0.1 µM, first compound 1 µM
[11] = second compound 0.1 µM, first compound 3.16 µM
[12] = second compound 0.1 µM, first compound 10 µM
[13] = second compound 0.316 µM, first compound 0.0316 µM
[14] = second compound 0.316 µM, first compound 0.1 µM
[15] = second compound 0.316 µM, first compound 0.316 µM
[16] = second compound 0.316 µM, first compound 1 µM
[17] = second compound 0.316 µM, first compound 3.16 µM
[18] = second compound 0.316 µM, first compound 10 µM
[19] = second compound 1 µM, first compound 0.0316 µM
[20] = second compound 1 µM, first compound 0.1 µM
[21] = second compound 1 µM, first compound 0.316 µM
[22] = second compound 1 µM, first compound 1 µM
[23] = second compound 1 µM, first compound 3.16 µM
[24] = second compound 1 µM, first compound 10 µM
[25] = second compound 3.16 µM, first compound 0.0316 µM
[26] = second compound 3.16 µM, first compound 0.1 µM
[27] = second compound 3.16 µM, first compound 0.316 µM
[28] = second compound 3.16 µM, first compound 1 µM
[29] = second compound 3.16 µM, first compound 3.16 µM
[30] = second compound 3.16 µM, first compound 10 µM

COc1cc(Nc2ncc3c(n2)-c2ccc(Cl)cc2C(c2c(F)cccc2OC)=NC3)ccc1C(=O)O + C=CC(=O)N1CCN(c2nc(OCC3CCCN3C)nc3c2CCN(c2cccc4cccc(C)c24)C3)CC1CC#N
active: viability, T/C [26] 1.27% | viability, T/C [27] 4.55% | viability, T/C [28] 7.12% | viability, T/C [29] 1.43% | viability, T/C [30] 0.67%
inactive: viability, T/C [1] 42.7% | viability, T/C [2] 35.9% | viability, T/C [3] 32.6% | viability, T/C [4] 27.1% | viability, T/C [5] 19.7% | viability, T/C [6] 14.6% | viability, T/C [7] 35.7% | viability, T/C [8] 28.9% | viability, T/C [9] 25.1% | viability, T/C [10] 22.3% | viability, T/C [11] 17.4% | viability, T/C [12] 11.7% | viability, T/C [13] 24.4% | viability, T/C [14] 19.5% | viability, T/C [15] 17% | viability, T/C [16] 14.3% | viability, T/C [17] 15% | viability, T/C [18] 11.3% | viability, T/C [19] 20.6% | viability, T/C [20] 15.5% | viability, T/C [21] 16.6% | viability, T/C [22] 16.3% | viability, T/C [23] 13.9% | viability, T/C [24] 9.29% | viability, T/C [25] 10.8%
> 7.50: pIC50 (second compound 0.0316 µM) | pIC50 (second compound 0.1 µM) | pIC50 (second compound 0.316 µM) | pIC50 (second compound 1 µM) | pIC50 (second compound 3.16 µM)

COc1cc2nccc(Oc3ccc(NC(=O)C4(C(=O)Nc5ccc(F)cc5)CC4)cc3)c2cc1OC + C=CC(=O)N1CCN(c2nc(OCC3CCCN3C)nc3c2CCN(c2cccc4cccc(C)c24)C3)CC1CC#N
> 7.50: pIC50 (second compound 1 µM) | pIC50 (second compound 3.16 µM)
active: viability, T/C [6] 8.75% | viability, T/C [18] 8.51% | viability, T/C [24] 0.15% | viability, T/C [25] 0.14% | viability, T/C [26] 0.75% | viability, T/C [27] 0.15% | viability, T/C [28] 0.37% | viability, T/C [29] 0.13% | viability, T/C [30] 0.23%
5.72: pIC50 (second compound 0.0316 µM)
5.97: pIC50 (second compound 0.1 µM)
inactive: viability, T/C [1] 64.8% | viability, T/C [2] 68.5% | viability, T/C [3] 64% | viability, T/C [4] 77.8% | viability, T/C [5] 35.4% | viability, T/C [7] 50.5% | viability, T/C [8] 51.4% | viability, T/C [9] 49.5% | viability, T/C [10] 53.4% | viability, T/C [11] 29% | viability, T/C [12] 12% | viability, T/C [13] 42% | viability, T/C [14] 38.5% | viability, T/C [15] 47.9% | viability, T/C [16] 53.8% | viability, T/C [17] 24.9% | viability, T/C [19] 27.4% | viability, T/C [20] 31.1% | viability, T/C [21] 25.3% | viability, T/C [22] 30.6% | viability, T/C [23] 19.9%
7.50: pIC50 (second compound 0.316 µM)

O=C(c1cc(Cc2n[nH]c(=O)c3ccccc23)ccc1F)N1CCN(C(=O)C2CC2)CC1 + C=CC(=O)N1CCN(c2nc(OCC3CCCN3C)nc3c2CCN(c2cccc4cccc(C)c24)C3)CC1CC#N
active: viability, T/C [29] 8.8% | viability, T/C [30] 1.75%
> 7.50: pIC50 (second compound 0.1 µM) | pIC50 (second compound 0.316 µM) | pIC50 (second compound 1 µM) | pIC50 (second compound 3.16 µM)
6.16: pIC50 (second compound 0.0316 µM)
inactive: viability, T/C [1] 76.6% | viability, T/C [2] 66.2% | viability, T/C [3] 102% | viability, T/C [4] 35.3% | viability, T/C [5] 34.3% | viability, T/C [6] 27.8% | viability, T/C [7] 45% | viability, T/C [8] 40.5% | viability, T/C [9] 33.8% | viability, T/C [10] 31.4% | viability, T/C [11] 29% | viability, T/C [12] 23% | viability, T/C [13] 38.1% | viability, T/C [14] 37.8% | viability, T/C [15] 35.2% | viability, T/C [16] 26.4% | viability, T/C [17] 20.9% | viability, T/C [18] 18.6% | viability, T/C [19] 26.4% | viability, T/C [20] 22.7% | viability, T/C [21] 39.3% | viability, T/C [22] 23.1% | viability, T/C [23] 21.7% | viability, T/C [24] 21.4% | viability, T/C [25] 11.3% | viability, T/C [26] 1.1% | viability, T/C [27] 36.4% | viability, T/C [28] 6.37%
